What is called Ki is the dissociation constant of the complex between target and ligand, obtained from inhibition or displacement.

Test [1] addresses T1, human muscarinic M3 receptor (Homo sapiens (Human), UniProt P20309). In words: Binding assay on human muscarinic M3 receptor ([3H]-methyl scopolamine displacement). To be noted: membranes overexpressing human M3 receptor, Ki from IC50 by Cheng-Prusoff, read-out: Binding Affinity to M3 Receptor, Ki. A digest of the protocol:
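Displacement of [3H]-methyl scopolamine from membranes overexpressing human M3, in Tris-HCl, 25 °C, 120 min; filter-bound radioactivity counted. Nonspecific binding with 5 μM atropine; Ki from IC50 via Cheng-Prusoff.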

For test [2], the target named is T1, human muscarinic M3 receptor. As to the kind of experiment: Antagonism assay on human muscarinic M3 receptor (carbachol-induced intracellular calcium, FLIPR Calcium 5, transfected Cos-7 cells). The test is classed as cell-based. To be noted: functional inhibitory constant; carbachol-induced intracellular calcium in Cos-7 cells transfected with human M3 receptor. The protocol: [Experimental Example 2] Antagonism Assay on Human Muscarinic M3 Receptor
The antagonism assay for various compounds of the present invention was conducted on antagonism to human M3 receptor in Cos-7 cells that was transfected with plasmid coding human muscarinic M3 receptor. Test compounds in various concentrations were pre-treated to the cells for 3 minutes, and then the changes of intracellular calcium were measured after treating the same with carbachol (i.e. muscarinic receptor agonist). The FLIPR® Calcium 5 assay (Molecular Devices) and Flex3 device (Molecular Devices) were used to measure concentration of calcium. Amounts of calcium before and after carbachol treatment were set as 0% and 100% respectively. Inhibition rates (%) by the compounds for increase in intracellular calcium by carbachol were calculated. The antagonistic potency of the test compounds on human muscarinic M3 receptor was calculated as the functional inhibitory constant (Ki), which can be calculated from concentration (IC50) of compound inhibiting 50% of activity of carbachol according to Cheng and Prusoff equation.
(In general: A change in cytosolic calcium serves as a functional read-out for many receptors and channels.)

T1 sequence (P20309 whole entry): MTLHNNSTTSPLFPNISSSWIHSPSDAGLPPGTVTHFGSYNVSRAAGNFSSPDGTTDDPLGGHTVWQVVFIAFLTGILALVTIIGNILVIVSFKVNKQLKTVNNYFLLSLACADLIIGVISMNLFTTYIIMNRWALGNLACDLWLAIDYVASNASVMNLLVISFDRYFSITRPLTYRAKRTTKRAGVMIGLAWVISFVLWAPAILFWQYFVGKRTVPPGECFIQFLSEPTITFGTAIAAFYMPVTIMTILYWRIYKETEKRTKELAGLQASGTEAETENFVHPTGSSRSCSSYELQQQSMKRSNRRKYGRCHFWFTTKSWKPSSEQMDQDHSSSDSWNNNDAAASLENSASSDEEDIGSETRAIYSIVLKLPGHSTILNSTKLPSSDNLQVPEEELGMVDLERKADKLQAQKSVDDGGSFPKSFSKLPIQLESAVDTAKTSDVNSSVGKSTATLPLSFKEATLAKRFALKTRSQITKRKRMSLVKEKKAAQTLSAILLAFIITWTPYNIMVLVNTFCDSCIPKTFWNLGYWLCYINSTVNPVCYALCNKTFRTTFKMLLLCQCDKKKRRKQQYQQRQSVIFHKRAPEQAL

Turning to `CN1CCCC1CCOC(=O)Nc1ccc(F)cc1-c1cc(Cl)c(F)c(Cl)c1` (centres unmarked) [Example 56, 2-(1-methylpyrrolidin-2-yl)ethyl(3′,5′-dichloro-4′,5-difluoro-[1,1′-biphenyl]-2-yl)carbamate], the Ki in test [1] stood at 12.5 nM; in test [2] it was 10 nM.

As for `CN1CCCC1CCOC(=O)Nc1ccc(F)cc1-c1ccc(O)c(Cl)c1` (centres unmarked) [Example 58, 2-(1-methylpyrrolidin-2-yl)ethyl(3′-chloro-5-fluoro-4′-hydroxy-[1,1′-biphenyl]-2-yl)carbamate], the Ki in test [1] is 26.3 nM; in test [2], 4.7 nM.

With `CN1CCCC1CCOC(=O)Nc1ccc(Cl)cc1-c1cccc(F)c1` (centres unmarked) [Example 67, 2-(1-Methylpyrrolidin-2-yl)ethyl(5-chloro-3′-fluoro-[1,1′-biphenyl]-2-yl)carbamate], the inhibition constant Ki in test [1] came out at 16.3 nM; in test [2], 11.9 nM.

With `CN1CCCC1CCOC(=O)Nc1ccc(Cl)cc1-c1ccc(F)cc1` (centres unmarked) [Example 68, 2-(1-Methylpyrrolidin-2-yl)ethyl(5-chloro-4′-fluoro-[1,1′-biphenyl]-2-yl)carbamate], the Ki in test [1] and in test [2] was 13.2 nM each time.

For `CN1CCCC1CCOC(=O)Nc1ccc(O)cc1-c1ccc(F)c(Cl)c1` (centres unmarked) [Example 77, 2-(1-methylpyrrolidin-2-yl)ethyl (3′-chloro-4′-fluoro-5-hydroxy-[1,1′-biphenyl]-2-yl)carbamate], the Ki was 22 nM in test [1] and 10 nM in test [2].

Consider `CN1CC[C@@H](COC(=O)Nc2ccccc2-c2ccc(F)cc2)C1` [Example 114, (R)-(1-methylpyrrolidin-3-yl)methyl(4′-fluoro-[1,1′-biphenyl]-2-yl)carbamate], for which the Ki in test [1] was 4.23 nM; in test [2], 0.58 nM.

Regarding `CN1CC[C@@H](COC(=O)Nc2ccccc2-c2ccc(F)c(F)c2)C1` [Example 115, (R)-(1-methylpyrrolidin-3-yl)methyl(3′,4′-difluoro-[1,1′-biphenyl]-2-yl)carbamate], the figures for the Ki in test [1] and in test [2] were 7.49 nM and 0.32 nM, respectively.

For `CN1CC[C@H](COC(=O)Nc2ccccc2-c2cccc(F)c2)C1` [Example 116, (S)-(1-methylpyrrolidin-3-yl)-methyl (3′-fluoro-[1,1′-biphenyl]-2-yl)carbamate], the Ki in test [1] came to 12.6 nM; in test [2], 1.21 nM.

On to `CN1CC[C@H](COC(=O)Nc2ccccc2-c2cccc(Cl)c2)C1` [Example 118, (S)-(1-methylpyrrolidin-3-yl)methyl(3′-chloro-[1,1′-biphenyl]-2-yl)carbamate], for which the Ki in test [1] stood at 2.42 nM; in test [2] it was 0.77 nM.

In the case of `CN1CC[C@H](COC(=O)Nc2ccccc2-c2cc(F)cc(Cl)c2)C1` [Example 120, (S)-(1-methylpyrrolidin-3-yl)methyl(3′-chloro-5′-fluoro-[1,1′-biphenyl]-2-yl)carbamate], the figures for the Ki in test [1] and in test [2] were 9.7 nM and 1.03 nM, respectively.

On to `CN1CC[C@H](COC(=O)Nc2ccc(F)cc2-c2cc(Cl)cc(Cl)c2)C1` [Example 126, (S)-(1-methylpyrrolidin-3-yl)methyl(3′,5′-dichloro-5-fluoro-[1,1′-biphenyl]-2-yl)carbamate], for which the inhibition constant (Ki) in test [1] stood at 24.8 nM; in test [2], 17.5 nM.

`CN1CC[C@@H](COC(=O)Nc2ccccc2-c2ccc(Cl)c(Cl)c2)C1` [Example 130, (R)-(1-methylpyrrolidin-3-yl)-methyl (3′,4′-dichloro-[1,1′-biphenyl]-2-yl)carbamate]: the Ki was 2.1 nM in test [1] and 1.14 nM in test [2].

Take `CN1CC[C@@H](COC(=O)Nc2ccccc2-c2cc(F)cc(Cl)c2)C1` [Example 132, (R)-(1-methylpyrrolidin-3-yl)methyl(3′-chloro-5′-fluoro-[1,1′-biphenyl]-2-yl)carbamate]: the Ki came out at 4.64 nM in test [1] and 0.75 nM in test [2].

With `CN1CC[C@@H](COC(=O)Nc2ccc(F)cc2-c2cc(Cl)cc(Cl)c2)C1` [Example 135, (R)-(1-methylpyrrolidin-3-yl)methyl(3′,5′-dichloro-5-fluoro-[1,1′-biphenyl]-2-yl)carbamate], the results for the inhibitory constant (Ki) in test [1] and in test [2] were 24.1 nM and 16.5 nM, respectively.

On to `CN1CC[C@@H](COC(=O)Nc2ccc(F)cc2-c2ccc(F)cc2)C1` [Example 141, (R)-(1-methylpyrrolidin-3-yl)methyl(4′,5-difluoro-[1,1′-biphenyl]-2-yl)carbamate], for which the Ki in test [1] came out at 7.57 nM; in test [2], 0.35 nM.

Regarding `CN1CC[C@@H](COC(=O)Nc2ccc(F)cc2-c2ccccc2F)C1` [Example 144, (R)-(1-methylpyrrolidin-3-yl)methyl(2′,5-difluoro-[1,1′-biphenyl]-2-yl)carbamate], the Ki turned out to be 17.2 nM in test [1] and 1.42 nM in test [2].

For `CN1CCC[C@H]1COC(=O)Nc1ccccc1-c1cc(F)cc(Cl)c1` [Example 148, (S)-(1-methylpyrrolidin-2-yl)methyl(3′-chloro-5′-fluoro-[1,1′-biphenyl]-2-yl)carbamate], the inhibition constant (Ki) in test [1] was 10.2 nM; in test [2], 2.22 nM.

For the compound `CN1CCC[C@H]1COC(=O)Nc1ccccc1-c1ccc(F)c(Cl)c1` [Example 149, (S)-(1-methylpyrrolidin-2-yl)methyl(3′-chloro-4′-fluoro-[1,1′-biphenyl]-2-yl)carbamate], the figures for the Ki in test [1] and in test [2] were 1.57 nM and 0.1 nM, respectively.

On to `CC(C)N1CC[C@@H](COC(=O)Nc2ccccc2-c2ccc(F)c(Cl)c2)C1` [Example 151, (R)-(1-isopropylpyrrolidin-3-yl)-methyl (3′-chloro-4′-fluoro-[1,1′-biphenyl]-2-yl)carbamate], for which the Ki in test [1] worked out at 14.9 nM; in test [2], 2.67 nM.

Consider `CN1CC[C@@H](COC(=O)Nc2ccccc2-c2ccccc2F)C1` [Example 156, (R)-(1-methylpyrrolidin-3-yl)methyl(2′-fluoro-[1,1′-biphenyl]-2-yl)carbamate], for which the Ki in test [1] was 10.6 nM; in test [2] it was 1.15 nM.

Consider `CN1CC[C@@H](COC(=O)Nc2ccccc2-c2ccc(F)cc2F)C1` [Example 157, (R)-(1-methylpyrrolidin-3-yl)methyl-(2′,4′-difluoro-[1,1′-biphenyl]-2-yl)carbamate], for which the inhibition constant Ki in test [1] is 29.6 nM; in test [2], 3.25 nM.

Turning to `CN1CC[C@@H](COC(=O)Nc2ccccc2-c2cc(Cl)ccc2F)C1` [Example 159, (R)-(1-methylpyrrolidin-3-yl)methyl(3′-chloro-6′-fluoro-[1,1′-biphenyl]-2-yl)carbamate], the Ki is 5.13 nM in test [1] and 0.46 nM in test [2].

`CN1CCCC1CCOC(=O)Nc1ccccc1-c1ccc(F)cc1F` (centres unmarked) [Example 183, 2-(1-Methylpyrrolidin-2-yl)ethyl (2′,4′-difluoro-[1,1′-biphenyl]-2-yl)carbamate]: the Ki in test [1] is 18.9 nM; in test [2] it was 2.57 nM.

`CN1CCCC1CCOC(=O)Nc1ccccc1-c1cc(Cl)ccc1F` (centres unmarked) [Example 186, 2-(1-Methylpyrrolidin-2-yl)ethyl (5′-chloro-2′-fluoro-[1,1′-biphenyl]-2-yl)carbamate]: the Ki in test [1] was 4.68 nM; in test [2], 0.34 nM.

As for `CN1CCC[C@H]1COC(=O)Nc1ccccc1-c1ccccc1F` [Example 187, (S)-(1-methylpyrrolidin-2-yl)methyl(2′-fluoro-[1,1′-biphenyl]-2-yl)carbamate], the Ki worked out at 10.7 nM in test [1] and 0.48 nM in test [2].

Source of the values: patent US9828339B2, “Biphenyl derivatives and methods for preparing same” (DONG-A ST CO., LTD, priority 2013, dated 2017).
